The text below walks through data of patent publication US7964732B2, “Substituted bicyclocarboxyamide compounds” (Pfizer Inc., priority 2006, dated 2011).

Molecules are shown by their SMILES.

Broadly, the IC50 is the point on the concentration scale where inhibition reaches its midpoint. A low value points to inhibition by little substance.

The target of this assay is T1, human VR1 (Homo sapiens, UniProt Q8NER1).
T1 construct: host or cells: cells that express human VR1 receptors (cell type not specified)
T1 sequence (Q8NER1 whole entry): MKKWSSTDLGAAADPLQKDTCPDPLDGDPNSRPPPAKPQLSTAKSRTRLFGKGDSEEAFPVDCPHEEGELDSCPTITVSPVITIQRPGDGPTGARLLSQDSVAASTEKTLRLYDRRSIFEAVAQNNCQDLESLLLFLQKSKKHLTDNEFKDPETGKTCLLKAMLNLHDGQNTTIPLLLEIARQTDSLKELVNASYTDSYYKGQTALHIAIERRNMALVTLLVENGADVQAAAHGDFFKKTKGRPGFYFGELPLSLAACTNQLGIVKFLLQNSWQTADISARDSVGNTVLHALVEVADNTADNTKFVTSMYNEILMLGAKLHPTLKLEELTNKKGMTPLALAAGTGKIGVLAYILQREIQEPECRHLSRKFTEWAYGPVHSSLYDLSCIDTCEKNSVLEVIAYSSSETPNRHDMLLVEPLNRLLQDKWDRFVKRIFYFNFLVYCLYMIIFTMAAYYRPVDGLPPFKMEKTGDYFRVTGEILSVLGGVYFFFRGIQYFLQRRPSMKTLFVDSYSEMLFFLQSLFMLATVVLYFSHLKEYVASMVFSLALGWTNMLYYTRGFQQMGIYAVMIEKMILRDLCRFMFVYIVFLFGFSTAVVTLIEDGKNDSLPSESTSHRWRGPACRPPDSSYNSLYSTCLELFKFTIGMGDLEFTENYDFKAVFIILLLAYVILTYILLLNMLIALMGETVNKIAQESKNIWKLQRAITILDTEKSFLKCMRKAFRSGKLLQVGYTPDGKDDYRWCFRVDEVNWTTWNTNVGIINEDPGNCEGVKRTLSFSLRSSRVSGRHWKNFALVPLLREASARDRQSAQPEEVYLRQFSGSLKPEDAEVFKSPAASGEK
As to the kind of experiment: Human VR1 antagonist assay (Ca2+ imaging assay using human VR1 highly expressing cells). The assay is classed as cell-based. The conditions noted are these: intracellular Ca2+ imaging (fura-2). The source says: VR1 antagonistic activity can be determined by the Ca^2+ imaging assay using human VR1 highly expressing cells. The cells that highly express human VR1 receptors are obtainable from several different conventional methods. The one standard method is cloning from human Dorsal Root Ganglion (DRG) or kidney according to the methods such as described in the journal article; Nature, 389, pp 816-824, 1997. Alternatively VR1 receptors highly expressing human keratinocytes are also known and published in the journal article (Biochemical and Biophysical Research Communications, 291, pp 124-129, 2002). […] Furthermore, the method to up regulate human VR1 gene, which is usually a silent gene or don't produce detectable level of VR1 receptors, is also available to obtain propriety cells. Such genetic modification method was described in detail; Nat. Biotechnol., 19, pp 440-445, 2001.
The cells that express human VR1 receptors were maintained in culture flask at 37° C. in an environment containing 5% CO2 until use in the assay. The intracellular Ca^2+ imaging assay to determine VR1 antagonistic activities were done by following procedures.
The culture medium was removed from the flask and fura-2/AM fluorescent calcium indicator was added to the flask at a concentration of 5 μM in the medium. The flask was placed in CO2 incubator and incubated for 1 hour. Then the cells expressing the human VR1 receptors were detached from the flask follow by washing with phosphate buffer saline, PBS(−) and re-suspended in assay buffer. The 80 μl of aliquot of cell suspension (3.75×10^5 cells/ml) was added to the assay plate and the cells were spun down by centrifuge (950 rpm, 20° C., 3 minutes).
Compounds of the examples were tested in the Human VR1 antagonist assay described above.
The capsaicin-induced changes in the intracellular calcium concentration were monitored using FDSS 6000 (Hamamatsu Photonics, Japan), a fluorometric imaging system. The cell suspension in Krebs-Ringer HEPES (KRH) buffer (115 mM NaCl, 5.4 mM KCl, 1 mM MgSO4, 1.8 mM CaCl2, 11 mM D-Glucose, 25 mM HEPES, 0.96 mM Na2HPO4, pH 7.3) were pre-incubated with varying concentrations of the test compounds or KRH buffer (buffer control) for 15 minutes at room temperature under the dark condition. Then capsaicin solution, which gives 300 nM in assay mixture, was automatically added to the assay plate by the FDSS 6000.
The Acid-induced changes in the intracellular calcium concentration were monitored using FDSS 6000 (Hamamatsu Photonics, Japan), a fluorometric imaging system. The cell suspension in resting buffer (HBSS supplemented with 10 mM HEPES, pH 7.4) were pre-incubated with varying concentrations of the test compounds or resting buffer (buffer control) for 15 minutes at room temperature under the dark condition. The cells were automatically added the stimulating solution (HBSS supplemented with MES, final assay buffer pH5.8) by the FDSS 6000.
The monitoring of the changes in the fluorescence signals (λex=340 nm/380 nm, λem=510-520 nm) was initiated at 1 minute prior to the addition of capsaicin solution or acidic buffer and continued for 5 minute.
In turn, `Cc1nn(C)cc1CNC(=O)c1ccc2cc(C(C)(C)C)ccc2c1` [Example 26, 6-tert-butyl-N-[(1,3-dimethyl-1H-pyrazol-4-yl)methyl]-2-naphthamide] had an IC50 of 443 nM. Then `Cc1c(CNC(=O)c2ccc3cc(C(C)(C)C)ccc3c2)cnn1C` [Example 27, 6-tert-butyl-N-[(1,5-dimethyl-1H-pyrazol-4-yl)methyl]-2-naphthamide], with 73 nM.

The compound `Cc1c(C(C)NC(=O)c2ccc3cc(C(C)(C)O)ccc3c2)cnn1C` (centres unmarked) [Example 37, N-[1-(1,5-dimethyl-1H-pyrazol-4-yl)ethyl]-6-(1-hydroxy-1-methylethyl)-2-naphthamide] had a half-maximal inhibitory concentration (IC50) of 1000 nM. Then `Cc1nn(C)c(C)c1CNC(=O)c1ccc2cc(C(C)(C)C)ccc2c1` [Example 35, 6-tert-butyl-N-((1,3,5-trimethyl-1H-pyrazol-4-yl)methyl)-2-naphthamide], with 1870 nM; and `COC(C)(c1ccc2cc(C(=O)NC(C)c3cnn(C)c3C)ccc2c1)C(F)(F)F` (centres unmarked) [Example 33, N-[1-(1,5-dimethyl-1H-pyrazol-4-yl)ethyl]-6-(2,2,2-trifluoro-1-methoxy-1-methylethyl)-2-naphthamide], with 139 nM. Then `Cc1c(C(C)NC(=O)c2ccc3nc(C(C)(C)C(F)(F)F)ccc3c2)cnn1C1CCC1` (centres unmarked) [Example 17], with 124 nM; and `Cc1c([C@@H](C)NC(=O)c2ccc3nc(C4(C)CC4)ccc3c2)cnn1C` [Example 13, N-[(1R)-1-(1,5-dimethyl-1H-pyrazol-4-yl)ethyl]-2-(1-methylcyclopropyl) quinoline-6-carboxamide], with 313 nM.

Compound `CCn1ncc(C(C)NC(=O)c2ccc3nc(C(C)(C)C(F)(F)F)ccc3c2)c1C` (centres unmarked) [Example 16, N-[1-(1-ethyl-5-methyl-1H-pyrazol-4-yl)ethyl]-2-(2,2,2-trifluoro-1,1-dimethylethyl)quinoline-6-carboxamide] displayed an IC50 of 28.9 nM. `Cc1c(CNC(=O)c2ccc3nc(C(C)(C)C(F)(F)F)ccc3c2)cnn1C` [Example 2, N-[(1,5-dimethyl-1H-pyrazol-4-yl)methyl]-2-(2,2,2-trifluoro-1,1-dimethylethyl)quinoline-6-carboxamide] gave a 50% inhibitory concentration (IC50) of 261 nM. For `CCn1ncc(CNC(=O)c2ccc3nc(C(C)(C)C(F)(F)F)ccc3c2)c1C` [Example 15, N-[(1-ethyl-5-methyl-1H-pyrazol-4-yl)methyl]-2-(2,2,2-trifluoro-1,1-dimethylethyl)quinoline-6-carboxamide], the 50% inhibitory concentration (IC50) stood at 71.7 nM. `Cc1c([C@@H](C)NC(=O)c2ccc3nc(C(F)(F)F)ccc3c2)cnn1C` [Example 23, (R)-N-(1-(1,5-dimethyl-1H-pyrazol-4-yl)ethyl)-2-(trifluoromethyl) quinoline-6-carboxamide] returned a half-maximal inhibitory concentration (IC50) of 121 nM.

For `Cc1c([C@@H](C)NC(=O)c2ccc3cc(C(C)(O)C(F)(F)F)ccc3c2)cnn1C` (mixture of isomers) [Example 31, N-[(1R)-1-(1,5-dimethyl-1H-pyrazol-4-yl)ethyl]-6-(2,2,2-trifluoro-1-hydroxy-1-methylethyl)-2-naphthamide], it took 177 nM to reach half-maximal inhibition (IC50). The result for `Cc1c(C(C)NC(=O)c2ccc3nc(C(C)(C)C(F)(F)F)ccc3c2)cnn1CC(C)(C)O` (centres unmarked) [Example 12, N-(1-(1-(2-hydroxy-2-methylpropyl)-5-methyl-1H-pyrazol-4-yl)ethyl)-2-(2,2,2-trifluoro-1,1-dimethylethyl)quinoline-6-carboxamide] reads 79.9 nM; that for `Cc1c(C(C)NC(=O)c2ccc3cc(C(C)(C)C)ccc3c2)cnn1C` (centres unmarked) [Example 24, 6-tert-butyl-N-[1-(1,5-dimethyl-1H-pyrazol-4-yl)ethyl]-2-naphthamide], 23 nM; that for `Cc1[nH]ncc1C(C)NC(=O)c1ccc2nc(C(C)(C)C(F)(F)F)ccc2c1` (centres unmarked) [Example 9, N-[1-(5-methyl-1H-pyrazol-4-yl)ethyl]-2-(2,2,2-trifluoro-1,1-dimethylethyl)quinoline-6-carboxamide], 323 nM. Compound `C[C@@H](NC(=O)c1ccc2nc(C(C)(C)C(F)(F)F)ccc2c1)c1cnn(C)c1Cl` [Example 18a, (R)-N-(1-(5-chloro-1-methyl-1H-pyrazol-4-yl)ethyl)-2-(2,2,2-trifluoro-1,1-dimethylethyl)quinoline-6-carboxamide] displayed an IC50 of 3 nM. The result for `CCC(NC(=O)c1ccc2cc(C(C)(C)C)ccc2c1)c1cnn(C)c1C` (centres unmarked) [Example 28, 6-tert-butyl-N-(1-(1,5-dimethyl-1H-pyrazol-4-yl)propyl)-2-naphthamide] reads 57.4 nM; that for `Cc1n[nH]c(C)c1CNC(=O)c1ccc2cc(C(C)(C)C)ccc2c1` [Example 25, 6-tert-butyl-N-[(3,5-dimethyl-1H-pyrazol-4-yl)methyl]-2-naphthamide], 118 nM; that for `Cc1c(C(C)NC(=O)c2ccc3nc(C(C)(C)C(F)(F)F)ccc3c2)cnn1CC(F)(F)F` (centres unmarked) [Example 5, N-(1-(5-methyl-1-(2,2,2-trifluoroethyl)-1H-pyrazol-4-yl)ethyl)-2-(2,2,2-trifluoro-1,1-dimethylethyl)quinoline-6-carboxamide], 44.1 nM.

On to `CCC(NC(=O)c1ccc2nc(C(C)(C)C(F)(F)F)ccc2c1)c1cnn(C)c1C` (racemic) [Example 7, N-[1-(1,5-dimethyl-1H-pyrazol-4-yl)propyl]-2-(2,2,2-trifluoro-1,1-dimethylethyl)quinoline-6-carboxamide], for which half-maximal inhibition (IC50) was put at 145 nM. Compound `Cc1c(CNC(=O)c2ccc3cc(C(C)(C)C)ccc3n2)cnn1C` [Example 34, 6-tert-butyl-N-[(1,5-dimethyl-1H-pyrazol-4-yl)methyl]quinoline-2-carboxamide] displayed an IC50 of 254 nM. With `Cc1c(C(C)NC(=O)c2ccc3cc(C(F)(F)F)ccc3c2)cnn1C` (centres unmarked) [Example 29, N-(1-(1,5-dimethyl-1H-pyrazol-4-yl)ethyl)-6-(trifluoromethyl)-2-naphthamide], the concentration for half-maximal inhibition (IC50) was 189 nM. Then `Cc1c([C@@H](C)NC(=O)c2ccc3cc([C@@](C)(O)C(F)(F)F)ccc3c2)cnn1C` (single isomer, unassigned) [Example 32], with 52.7 nM.

As for `Cc1c([C@@H](C)NC(=O)c2ccc3nc(C(C)(O)C(F)(F)F)ccc3c2)cnn1C` (some centres unmarked) [Example 14], the IC50 was 63.7 nM. Turning to `Cn1cc(CNC(=O)c2ccc3cc(C(C)(C)C)ccc3c2)cn1` [Example 36], half-maximal inhibition (IC50) was put at 3480 nM.

Consider `C[C@@H](NC(=O)c1ccc2nc(C(C)(C)C(F)(F)F)ccc2c1)c1cnn(C)c1C#N` [Example 3, (R)-N-(1-(5-cyano-1-methyl-1H-pyrazol-4-yl)ethyl)-2-(2,2,2-trifluoro-1,1-dimethylethyl)quinoline-6-carboxamide], for which inhibition was half-maximal at 322 nM (IC50). As to `Cc1c(C(C)NC(=O)c2ccc3nc(C(C)(C)C(F)(F)F)ccc3c2)cnn1CCO` (centres unmarked) [Example 11, N-(1-(1-(2-hydroxyethyl)-5-methyl-1H-pyrazol-4-yl)ethyl)-2-(2,2,2-trifluoro-1,1-dimethylethyl)quinoline-6-carboxamide], the half-maximal inhibitory concentration (IC50) came to 16.4 nM. The result for `CC[C@@H](NC(=O)c1ccc2nc(C(C)(C)C(F)(F)F)ccc2c1)c1cnn(C)c1C` (single isomer, unassigned) [Example 8] reads 66 nM; that for `Oc1cc2c(cc1O)CN(C(=S)NCCc1ccc(Cl)cc1)CCC2` [capsazepin, reference compound], 237 to 455 nM; that for `C[C@@H](NC(=O)c1ccc2nc(C(C)(C)C(F)(F)F)ccc2c1)c1cnn(C)c1CO` [Example 4, (R)-N-(1-(5-(hydroxymethyl)-1-methyl-1H-pyrazol-4-yl)ethyl)-2-(2,2,2-trifluoro-1,1-dimethylethyl)quinoline-6-carboxamide], 607 nM. The result for `Cc1c([C@@H](C)NC(=O)c2ccc3cc([C@](C)(O)C(F)(F)F)ccc3c2)cnn1C` [Example 32a, N-[(1R)-1-(1,5-dimethyl-1H-pyrazol-4-yl)ethyl]-6-[(1S)-2,2,2-trifluoro-1-hydroxy-1-methylethyl]-2-naphthamide] reads 3190 nM. Then `Cc1c([C@@H](C)NC(=O)c2ccc3cc(C4(C)CC4)ccc3c2)cnn1C` [Example 30, N-[(1R)-1-(1,5-dimethyl-1H-pyrazol-4-yl)ethyl]-6-(1-methylcyclopropyl)-2-naphthamide], with 20.1 nM.
